{
  "source": "PubChem BioAssay (NCI)",
  "assay_in_all_cases": "DTP human tumour cell line panel, 48 h",
  "key": {"RXF 393 renal": {"tested_on": "RXF 393 renal"}, "UO-31 renal": {"tested_on": "UO-31 renal"}, "EKVX NSCLC": {"tested_on": "EKVX NSCLC"}, "SK-MEL-2 melanoma": {"tested_on": "SK-MEL-2 melanoma"}, "COLO 205 colon": {"tested_on": "COLO 205 colon"}, "KM12 colon": {"tested_on": "KM12 colon"}, "NCI/ADR-RES ovarian": {"tested_on": "NCI/ADR-RES ovarian"}, "SK-MEL-28 melanoma": {"tested_on": "SK-MEL-28 melanoma"}, "HCT-116 colon": {"tested_on": "HCT-116 colon"}, "TK-10 renal": {"tested_on": "TK-10 renal"}, "CCRF-CEM leukemia": {"tested_on": "CCRF-CEM leukemia"}, "U251 CNS": {"tested_on": "U251 CNS"}, "LOX IMVI melanoma": {"tested_on": "LOX IMVI melanoma"}, "NCI-H226 lung": {"tested_on": "NCI-H226 lung"}, "SK-MEL-5 melanoma": {"tested_on": "SK-MEL-5 melanoma"}, "A549 NSCLC": {"tested_on": "A549 NSCLC"}, "OVCAR-4 ovarian": {"tested_on": "OVCAR-4 ovarian"}, "SW-620 colon": {"tested_on": "SW-620 colon"}, "SF-268 CNS": {"tested_on": "SF-268 CNS"}, "K-562 leukemia": {"tested_on": "K-562 leukemia"}, "MOLT-4 leukemia": {"tested_on": "MOLT-4 leukemia"}, "T-47D breast": {"tested_on": "T-47D breast"}, "SF-539 CNS": {"tested_on": "SF-539 CNS"}, "UACC-62 melanoma": {"tested_on": "UACC-62 melanoma"}, "HS 578T breast": {"tested_on": "HS 578T breast"}, "SK-OV-3 ovarian": {"tested_on": "SK-OV-3 ovarian"}, "NCI-H522 lung": {"tested_on": "NCI-H522 lung"}},
  "note": "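Following 48 hours of exposure in 96-well plates, responses at five concentrations were used to interpolate endpoints linearly. GI50 marks 50% less growth. Definition used: TGI = concentration required for complete inhibition of growth.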",
  "data": [
    {"compound": "COc1ccc2c(CCC(c3ccccc3)c3ccccc3)c3[n+](cc2c1OC)CCc1cc2c(cc1-3)OCO2", "values": [
      {"measurement": "GI50", "setting": "RXF 393 renal", "result": 0.686, "unit": "µM"},
      {"measurement": "TGI", "setting": "RXF 393 renal", "result": 2.2, "unit": "µM"},
      {"measurement": "GI50", "setting": "UO-31 renal", "result": 3.2, "unit": "µM"},
      {"measurement": "TGI", "setting": "UO-31 renal", "result": 13.3, "unit": "µM"},
      {"measurement": "GI50", "setting": "EKVX NSCLC", "result": 0.492, "unit": "µM"},
      {"measurement": "TGI", "setting": "EKVX NSCLC", "result": 7.25, "unit": "µM"},
      {"measurement": "GI50", "setting": "SK-MEL-2 melanoma", "result": 0.0705, "unit": "µM"},
      {"measurement": "TGI", "setting": "SK-MEL-2 melanoma", "result": 1.04, "unit": "µM"},
      {"measurement": "GI50", "setting": "COLO 205 colon", "result": 0.0831, "unit": "µM"},
      {"measurement": "TGI", "setting": "COLO 205 colon", "result": 0.619, "unit": "µM"},
      {"measurement": "GI50", "setting": "KM12 colon", "result": 0.16, "unit": "µM"},
      {"measurement": "TGI", "setting": "KM12 colon", "result": 1.19, "unit": "µM"},
      {"measurement": "GI50", "setting": "NCI/ADR-RES ovarian", "result": 13.1, "unit": "µM"},
      {"measurement": "TGI", "setting": "NCI/ADR-RES ovarian", "result": 55.7, "unit": "µM"},
      {"measurement": "GI50", "setting": "SK-MEL-28 melanoma", "result": 0.462, "unit": "µM"},
      {"measurement": "TGI", "setting": "SK-MEL-28 melanoma", "result": 2.06, "unit": "µM"},
      {"measurement": "GI50", "setting": "HCT-116 colon", "result": 0.202, "unit": "µM"},
      {"measurement": "TGI", "setting": "HCT-116 colon", "result": 1.27, "unit": "µM"},
      {"measurement": "GI50", "setting": "TK-10 renal", "result": 0.339, "unit": "µM"},
      {"measurement": "TGI", "setting": "TK-10 renal", "result": 1.58, "unit": "µM"},
      {"measurement": "GI50", "setting": "CCRF-CEM leukemia", "result": "< 0.0398", "unit": "µM"},
      {"measurement": "TGI", "setting": "CCRF-CEM leukemia", "result": 2.71, "unit": "µM"},
      {"measurement": "GI50", "setting": "U251 CNS", "result": 0.172, "unit": "µM"},
      {"measurement": "TGI", "setting": "U251 CNS", "result": 1.38, "unit": "µM"},
      {"measurement": "GI50", "setting": "LOX IMVI melanoma", "result": 0.255, "unit": "µM"},
      {"measurement": "TGI", "setting": "LOX IMVI melanoma", "result": 1.36, "unit": "µM"},
      {"measurement": "GI50", "setting": "NCI-H226 lung", "result": 1.56, "unit": "µM"},
      {"measurement": "TGI", "setting": "NCI-H226 lung", "result": 5.33, "unit": "µM"},
      {"measurement": "GI50", "setting": "SK-MEL-5 melanoma", "result": 0.0383, "unit": "µM"},
      {"measurement": "TGI", "setting": "SK-MEL-5 melanoma", "result": 0.214, "unit": "µM"},
      {"measurement": "GI50", "setting": "A549 NSCLC", "result": 1.55, "unit": "µM"},
      {"measurement": "TGI", "setting": "A549 NSCLC", "result": 5.07, "unit": "µM"},
      {"measurement": "GI50", "setting": "OVCAR-4 ovarian", "result": 0.271, "unit": "µM"},
      {"measurement": "TGI", "setting": "OVCAR-4 ovarian", "result": 1.51, "unit": "µM"},
      {"measurement": "GI50", "setting": "SW-620 colon", "result": 0.315, "unit": "µM"},
      {"measurement": "TGI", "setting": "SW-620 colon", "result": 1.63, "unit": "µM"},
      {"measurement": "GI50", "setting": "SF-268 CNS", "result": 0.519, "unit": "µM"},
      {"measurement": "TGI", "setting": "SF-268 CNS", "result": 1.98, "unit": "µM"},
      {"measurement": "GI50", "setting": "K-562 leukemia", "result": 0.327, "unit": "µM"},
      {"measurement": "TGI", "setting": "K-562 leukemia", "result": 3.01, "unit": "µM"},
      {"measurement": "GI50", "setting": "MOLT-4 leukemia", "result": 0.381, "unit": "µM"},
      {"measurement": "TGI", "setting": "MOLT-4 leukemia", "result": 3.04, "unit": "µM"},
      {"measurement": "GI50", "setting": "T-47D breast", "result": 0.241, "unit": "µM"},
      {"measurement": "TGI", "setting": "T-47D breast", "result": 1.76, "unit": "µM"},
      {"measurement": "GI50", "setting": "SF-539 CNS", "result": 0.846, "unit": "µM"},
      {"measurement": "TGI", "setting": "SF-539 CNS", "result": 3.67, "unit": "µM"},
      {"measurement": "GI50", "setting": "UACC-62 melanoma", "result": 0.153, "unit": "µM"},
      {"measurement": "TGI", "setting": "UACC-62 melanoma", "result": 1.76, "unit": "µM"},
      {"measurement": "GI50", "setting": "HS 578T breast", "result": 0.799, "unit": "µM"},
      {"measurement": "TGI", "setting": "HS 578T breast", "result": 3.82, "unit": "µM"},
      {"measurement": "GI50", "setting": "SK-OV-3 ovarian", "result": 0.593, "unit": "µM"},
      {"measurement": "TGI", "setting": "SK-OV-3 ovarian", "result": 1.74, "unit": "µM"},
      {"measurement": "GI50", "setting": "NCI-H522 lung", "result": 0.122, "unit": "µM"}
    ]}
  ]
}
